Results on 23 molecules are retold here after patent US20220112187A1, “PYRAZOLOPYRIDINE AMINE COMPOUNDS FOR THE TREATMENT OF AUTOIMMUNE DISEASE” (Hoffmann-La Roche Inc., priority 2018, published 2022).

This assay addresses T1, human TLR8 (Homo sapiens, UniProt Q9NR97).
T1 sequence (Q9NR97 27-1041): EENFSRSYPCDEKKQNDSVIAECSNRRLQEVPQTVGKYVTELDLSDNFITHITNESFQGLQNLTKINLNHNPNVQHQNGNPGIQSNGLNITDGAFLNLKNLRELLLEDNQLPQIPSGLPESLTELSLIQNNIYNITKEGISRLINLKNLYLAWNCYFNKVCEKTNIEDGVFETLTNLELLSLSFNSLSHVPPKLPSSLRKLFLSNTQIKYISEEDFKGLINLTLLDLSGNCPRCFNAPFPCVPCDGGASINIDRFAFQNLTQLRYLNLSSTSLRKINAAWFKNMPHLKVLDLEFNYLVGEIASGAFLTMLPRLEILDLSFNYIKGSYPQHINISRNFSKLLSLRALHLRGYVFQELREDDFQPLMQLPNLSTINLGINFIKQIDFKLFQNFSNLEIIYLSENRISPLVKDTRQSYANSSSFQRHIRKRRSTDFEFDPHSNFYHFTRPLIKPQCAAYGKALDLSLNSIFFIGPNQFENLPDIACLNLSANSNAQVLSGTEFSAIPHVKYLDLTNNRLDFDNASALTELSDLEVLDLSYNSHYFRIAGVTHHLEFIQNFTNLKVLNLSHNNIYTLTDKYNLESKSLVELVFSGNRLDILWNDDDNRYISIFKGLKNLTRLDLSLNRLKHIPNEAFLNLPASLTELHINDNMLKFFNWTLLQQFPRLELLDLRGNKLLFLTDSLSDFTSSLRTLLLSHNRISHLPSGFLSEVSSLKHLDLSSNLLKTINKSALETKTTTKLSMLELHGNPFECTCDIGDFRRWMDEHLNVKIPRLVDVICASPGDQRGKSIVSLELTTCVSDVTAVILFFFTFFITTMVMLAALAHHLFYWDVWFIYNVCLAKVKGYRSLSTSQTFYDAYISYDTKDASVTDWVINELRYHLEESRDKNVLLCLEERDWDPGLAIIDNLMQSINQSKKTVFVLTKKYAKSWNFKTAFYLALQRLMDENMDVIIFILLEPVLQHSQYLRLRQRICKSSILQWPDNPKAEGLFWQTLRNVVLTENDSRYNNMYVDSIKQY
In words: HEK293-Blue-hTLR-8 cells assay (SEAP reporter, R848 stimulation). To be noted: HEK293-Blue-hTLR8 cells, R848 ligand, 20 hrs incubation. The format is cell-based. The text has this:
A stable HEK293-Blue-hTLR-8 cell line was purchased from InvivoGen (Cat. #: hkb-htlr8, San Diego, Calif., USA). These cells were originally designed for studying the stimulation of human TLR8 by monitoring the activation of NF-κB. A SEAP (secreted embryonic alkaline phosphatase) reporter gene was placed under the control of the IFN-β minimal promoter fused to five NF-κB and AP-1-binding sites. The SEAP was induced by activating NF-κB and AP-1 via stimulating HEK-Blue hTLR8 cells with TLR8 ligands. Therefore the reporter expression was declined by TLR8 antagonist under the stimulation of a ligand, such as R848, for incubation of 20 hrs. The cell culture supernatant SEAP reporter activity was determined using QUANTI-Blue™ kit (Cat. #: rep-qb1, Invivogen, San Diego, Ca, USA) at a wavelength of 640 nm, a detection medium that turns purple or blue in the presence of alkaline phosphatase.
HEK293-Blue-hTLR8 cells were incubated at a density of 250,000˜450,000 cells/mL in a volume of 170 μL in a 96-well plate in Dulbecco's Modified Eagle's medium (DMEM) containing 4.5 g/L glucose, 50 U/mL penicillin, […], […], 2 mM L-glutamine, 10% (v/v) heat-inactivated fetal bovine serum with addition of 20 μL test compound in a serial dilution in the presence of final DMSO at 1% and 10 μL of 60 uM R848 in above DMEM, perform incubation under 37° C. in a CO2 incubator for 20 hrs. Then 20 μL of the supernatant from each well was incubated with 180 μL Quanti-blue substrate solution at 37° C. for 2 hrs and the absorbance was read at 620˜655 nm using a spectrophotometer. The signalling pathway that TLR8 activation leads to downstream NF-κB activation has been widely accepted, and therefore similar reporter assay was modified for evaluating TLR8 antagonist.
As for `C[C@@H]1CN(c2ccc(C#N)n3nccc23)C[C@H](CNC2CCN(C)CC2)O1` [Example 7, 4-[(2R,6S)-2-methyl-6-[[(1-methyl-4-piperidyl)amino]methyl]morpholin-4-yl]pyrazolo[1,5-a]pyridine-7-carbonitrile], half-maximal inhibition (IC50) required 320 nM. `C[C@@H]1CN(c2ccc(C#N)n3nccc23)C[C@H](CN2C3CCC2CNC3)O1` [Example 43, 4-[(2S,6R)-2-(3,8-diazabicyclo[3.2.1]octan-8-ylmethyl)-6-methyl-morpholin-4-yl]pyrazolo[1,5-a]pyridine-7-carbonitrile]: inhibition was half-maximal at 31 nM (IC50).

For the molecule `CC1CNCCN1C[C@H]1CN(c2ccc(C#N)n3nccc23)C[C@@H](C)O1` (single isomer, unassigned) [Example 50A], it took 64 nM to reach half-maximal inhibition (IC50). Consider `C[C@@H]1CN(c2ccc(C#N)n3nccc23)C[C@H](CN2CC3(CCCNC3)C2)O1` [Example 10, 4-[(2S,6R)-2-(2,8-diazaspiro[3.5]nonan-2-ylmethyl)-6-methyl-morpholin-4-yl]pyrazolo[1,5-a]pyridine-7-carbonitrile], for which the half-inhibitory concentration (IC50) turned out to be 130 nM. As for `C[C@@H]1CN(c2ccc(C#N)n3nccc23)C[C@H](CN2CCC3(CCNCC3)CC2)O1` [Example 3, 4-[(2S,6R)-2-(3,9-diazaspiro[5.5]undecan-3-ylmethyl)-6-methyl-morpholin-4-yl]pyrazolo[1,5-a]pyridine-7-carbonitrile], the figure is 620 nM. Turning to `C[C@@H]1CN(c2ccc(C#N)n3nccc23)C[C@H](CN2CC3CNCC3C2)O1` (stereo partly drawn) [Example 22, 4-[(2S,6R)-2-(2,3,3a,4,6,6a-hexahydro-1H-pyrrolo[3,4-c]pyrrol-5-ylmethyl)-6-methyl-morpholin-4-yl]pyrazolo[1,5-a]pyridine-7-carbonitrile], the IC50 is 69 nM.

Molecule `C[C@@H]1CN(c2ccc(C#N)n3nccc23)C[C@H](CN2CCC(CN)CC2)O1` [Example 12, 4-[(2S,6R)-2-[[4-(aminomethyl)-1-piperidyl]methyl]-6-methyl-morpholin-4-yl]pyrazolo[1,5-a]pyridine-7-carbonitrile] yielded an IC50 of 280 nM.

For `C[C@@H]1CN(c2ccc(C#N)n3nccc23)C[C@H](CN2CCCC3(CCCNC3)C2)O1` (stereo partly drawn) [Example 23, 4-[(2S,6R)-2-(2,8-diazaspiro[5.5]undecan-2-ylmethyl)-6-methyl-morpholin-4-yl]pyrazolo[1,5-a]pyridine-7-carbonitrile], the concentration for half-maximal inhibition (IC50) stood at 41 nM. As for `C[C@@H]1CN(c2ccc(C#N)n3nccc23)C[C@H](CN2CC3CCC2CN3)O1` (stereo partly drawn) [Example 30, 4-[(2S,6R)-2-(2,5-diazabicyclo[2.2.2]octan-2-ylmethyl)-6-methyl-morpholin-4-yl]pyrazolo[1,5-a]pyridine-7-carbonitrile], the figure is 100 nM. `C[C@@H]1CN(c2ccc(C#N)n3nccc23)C[C@H](CN2CC[C@@H]3CNCC32)O1` (stereo partly drawn) [Example 62, 4-[(2R,6S)-2-methyl-6-[[cis-(3aR,6aR)-3,3a,4,5,6,6a-hexahydro-2H-pyrrolo[3,4-b]pyrrol-1-yl]methyl]morpholin-4-yl]pyrazolo[1,5-a]pyridine-7-carbonitrile] had a half-inhibitory concentration (IC50) of 260 nM. In the case of `C[C@@H]1CN(c2ccc(C#N)n3nccc23)C[C@H](CN2CCN[C@H](c3ccccc3)C2)O1` [Example 38, 4-[(2R,6S)-2-methyl-6-[[(3R)-3-phenylpiperazin-1-yl]methyl]morpholin-4-yl]pyrazolo[1,5-a]pyridine-7-carbonitrile], the IC50 stood at 37 nM. The value for `C[C@@H]1CN(c2ccc(C#N)n3nccc23)C[C@H](CN2CCC3(CCCNC3)C2)O1` (stereo partly drawn) [Example 25, 4-[(2S,6R)-2-(2,9-diazaspiro[4.5]decan-2-ylmethyl)-6-methyl-morpholin-4-yl]pyrazolo[1,5-a]pyridine-7-carbonitrile] was 88 nM; that for `C[C@@H]1CN(c2ccc(C#N)n3nccc23)C[C@H](CN2CCC(N3CCNCC3)CC2)O1` [Example 39, 4-[(2R,6S)-2-methyl-6-[(4-piperazin-1-yl-1-piperidyl)methyl]morpholin-4-yl]pyrazolo[1,5-a]pyridine-7-carbonitrile] was 180 nM; that for `C[C@@H]1CN(c2ccc(C#N)n3nccc23)C[C@H](CN2CCC(C)(N)CC2)O1` [Example 29, 4-[(2S,6R)-2-[(4-amino-4-methyl-1-piperidyl)methyl]-6-methyl-morpholin-4-yl]pyrazolo[1,5-a]pyridine-7-carbonitrile] was 52 nM. The value for `C[C@@H]1CN(c2ccc(C#N)n3nccc23)C[C@H](CN2CC3CNCCC32)O1` (stereo partly drawn) [Example 52, 4-[(2S,6R)-2-(3,7-diazabicyclo[4.2.0]octan-7-ylmethyl)-6-methyl-morpholin-4-yl]pyrazolo[1,5-a]pyridine-7-carbonitrile] was 53 nM. The value for `C[C@@H]1CN(c2ccc(C#N)n3nccc23)C[C@H](CN2C3COCC2CC(N)C3)O1` (stereo partly drawn) [Example 58, 4-[(2S,6R)-2-[(7-amino-3-oxa-9-azabicyclo[3.3.1]nonan-9-yl)methyl]-6-methyl-morpholin-4-yl]pyrazolo[1,5-a]pyridine-7-carbonitrile] was 58 nM. `C[C@@H]1CN(c2ccc(C#N)n3nccc23)C[C@H](CN2CCC3(CCCNC3)CC2)O1` [Example 27, 4-[(2S,6R)-2-(2,9-diazaspiro[5.5]undecan-9-ylmethyl)-6-methyl-morpholin-4-yl]pyrazolo[1,5-a]pyridine-7-carbonitrile] yielded an IC50 of 190 nM. `C[C@@H]1CN(c2ccc(C#N)n3nccc23)C[C@H](CN2CCC3(CCCN3)CC2)O1` [Example 53, 4-[(2S,6R)-2-(1,8-diazaspiro[4.5]decan-8-ylmethyl)-6-methyl-morpholin-4-yl]pyrazolo[1,5-a]pyridine-7-carbonitrile] yielded an IC50 of 29 nM. In turn, `C[C@@H]1CN(c2ccc(C#N)n3nccc23)C[C@H](CN2CCC3(CCNCC3)C2)O1` [Example 18, 4-[(2S,6R)-2-(2,8-diazaspiro[4.5]decan-2-ylmethyl)-6-methyl-morpholin-4-yl]pyrazolo[1,5-a]pyridine-7-carbonitrile] showed an IC50 of 350 nM. On to `C[C@@H]1CN(c2ccc(C#N)n3nccc23)C[C@H](CN2CCC3(CCNC3)CC2)O1` [Example 19, 4-[(2S,6R)-2-(2,8-diazaspiro[4.5]decan-8-ylmethyl)-6-methyl-morpholin-4-yl]pyrazolo[1,5-a]pyridine-7-carbonitrile], for which the concentration for half-maximal inhibition (IC50) is 250 nM.

Regarding `C[C@@H]1CN(c2ccc(C#N)n3ncc(F)c23)C[C@H](CN2CCC3(CCCNC3)C2)O1` (stereo partly drawn) [Example 69, 3-fluoro-4-[(2S,6R)-2-(2,9-diazaspiro[4.5]decan-2-ylmethyl)-6-methyl-morpholin-4-yl]pyrazolo[1,5-a]pyridine-7-carbonitrile], the IC50 amounted to 26 nM. In the case of `C[C@@H]1CN(c2ccc(C#N)n3nccc23)C[C@H](CN2CCC(CCN)CC2)O1` [Example 13, 4-[(2S,6R)-2-[[4-(2-aminoethyl)-1-piperidyl]methyl]-6-methyl-morpholin-4-yl]pyrazolo[1,5-a]pyridine-7-carbonitrile], inhibition was half-maximal at 740 nM (IC50).

With `C[C@@H]1CN(c2ccc(C#N)n3nccc23)C[C@H](CN2CC(N)C(F)(F)C2)O1` (stereo partly drawn) [Example 35, 4-[(2S,6R)-2-[(4-amino-3,3-difluoro-pyrrolidin-1-yl)methyl]-6-methyl-morpholin-4-yl]pyrazolo[1,5-a]pyridine-7-carbonitrile], it took 950 nM to reach half-maximal inhibition (IC50).

Usually IC50 stands for the midpoint of a concentration-inhibition curve. Higher therefore signals lower potency.
